Measurements from US7282491B2, “Prokaryotic proteasomal proteases of Mycobacterium tuberculosis (MTB) as targets for antibiotic therapy” (Cornell Research Foundation, Inc., priority 2002, dated 2007).

How the values were obtained:
[1] = test system: Rv2115c and Rv2097c mutants; format: cell-based, Mycobacterium tuberculosis
[2] = test system: Rv2115c-mutant Mtb

`CC(C)C[C@H](NC(=O)[C@H](Cc1cccc2ccccc12)NC(=O)N1CCOCC1)B(O)O` [MLN-273, N-[4-morpholine]carbonyl-β-[1-naphthyl]-L-alanine-L-leucine boronic acid] was tested, and the “growth of Rv2115c and Rv2097c mutants under standard culture conditions” value [1] was “suppressed the growth of these mutants to same extent as for wt Mtb” and the “augmentation of the toxicity of nitrite against the Rv2115c mutant” value [2] was “augmented the toxicity of nitrite against the Rv2115c mutant”.
